The source of these data is paper PMC2570929 (Emerging Infectious Diseases, 2008).

Entries after “also recorded” stand apart in the source; their conditions may differ. Like-named read-outs stand apart in the source and are kept apart here.

Series [1] is described as follows: in vitro. The note with it: human.
The test system of series [2] is poliovirus Sabin strain 1 (PV1). The series is described as follows: microbe, parasite or virus in culture. In kind it is cell-based. Conditions: for EC50: Enterovirus C, HeLa, 72 h, read-out: EC50 PV1.
The conditions of series [3]: in vivo; cited from earlier work.
The subject of series [4] is HeLa cells (ATCC CCL-2).
For series [5], the system named is poliovirus Sabin strains 1, 2, and 3. Put plainly: microbe, parasite or virus in culture. In kind it is cell-based. Conditions: for EC50: Enterovirus C, read-out: EC50.
Series [6] relates to poliovirus Sabin strain 3 (PV3). Put plainly: microbe, parasite or virus in culture. In kind it is cell-based. The note with it: Enterovirus C, HeLa, 72 h, read-out: EC50 PV3.
The subject of series [7] is poliovirus Sabin strain 2 (PV2). The series is described as follows: microbe, parasite or virus in culture. In kind it is cell-based. The note with it: Enterovirus C, HeLa, 72 h, read-out: EC50 PV2.
Series [8] has as its system PV. Conditions: in vivo; cited from earlier work.
Series [9] concerns poliovirus 1 Sabin. In kind it is cell-based.
The conditions of series [10]: cited from earlier work.

A word on the EC50: it is the concentration that produces a half-maximal response.

In the case of `C#CCC(C(=O)NC(C=CC(=O)OCC)CC1CCNC1=O)n1cccc(NC(=O)c2cc(C)on2)c1=O` (stereo not shown) [Compound 1], the CC50 in [1] is > 100 µM. The EC50 in series [2] is 0.26 ± 0.24 µM; in series [5], < 1 µM. Besides, the oral bioavailability entry in series [3] is “excellent”. The “cytotoxicity” value in series [4] is reported as “without any signs of cytotoxicity”.
`N#Cc1cc([N+](=O)[O-])ccc1Oc1ccc(Cl)c(Cl)c1` [MDL-860, 2-(3,4-dichlorophenoxy)-5-nitrobenzonitrile]: the results for the EC50 in [6], in [2] and in series [7] were 2.2 ± 1.5 µM, 6 ± 1.6 µM and 3.6 ± 2.2 µM, respectively. Also, in [1], the CC50 was > 100 µM.
For `C[C@@]1(O)[C@H](O)[C@@H](CO)O[C@H]1n1cnc2c(N)ncnc21` [2'-C-methyladenosine, 2′-C-methyladenosine], the EC50 in series [6] was 5.4 ± 0.4 µM; in series [2], 5.5 µM; in series [5] it was ~5 µM; in series [7], 5.6 ± 0.1 µM. The CC50 in [1] was determined as 84 µM.
The matching figures for `C[C@@]1(O)[C@H](O)[C@@H](CO)O[C@H]1n1ccc(N)nc1=O` [2'-C-methylcytidine, 2′-C-methylcytidine]: 3.9 ± 2.3 µM, 15 ± 18 µM, 3.9 to 29 µM, 29 ± 27 µM and > 100 µM.
`[N-]=[N+]=N[C@]1(CO)O[C@@H](n2ccc(N)nc2=O)[C@H](O)[C@@H]1O` [4’-azidocytidine, 4′-azidocytidine]: the EC50 in series [6], in series [2] and in series [7] was > 100 µM in each case. For the same compound, the CC50 in series [1] is > 100 µM. Also, in series [5], the “anti-PV activity” value is “inactive; also recorded: devoid of anti-PV activity”.
As for `NC(=O)c1ncn([C@@H]2O[C@H](CO)[C@@H](O)[C@H]2O)n1` [Ribavirin], the EC50 in series [6] is 55 ± 7 µM; in series [2], 57 ± 13 µM; in [5], 50 to 60 µM; in series [7], 64 ± 4 µM. In addition, the CC50 in series [1] was > 100 µM.
Consider `OC(c1ccccc1)c1nc2ccccc2[nH]1` (stereo not drawn) [HBB, 2-(α-hydroxybenzyl)-benzimidazole], for which the EC50 in [6] is 295 ± 88 µM; in series [2], 300 ± 68 µM; in series [5], 200 to 300 µM; in series [7], 225 ± 128 µM. The CC50 in series [1] was > 400 µM.
Turning to `Cc1cc(CCCOc2c(C)cc(-c3noc(C(F)(F)F)n3)cc2C)on1` [Pleconaril], the EC50 in [6] is 0.22 ± 0.15 µM; in series [2], > 100 µM; in series [5] (HeLa) it was < 2 µM; in series [7], 1.1 ± 0.6 µM. Besides, the CC50 in [1] was determined as 66 ± 6 µM. Besides, the “benefit of treatment in a persistently infected person” value in [8] is “no benefit”. In [8], the “virus excretion in a child persistently infected with PV” value was “effective in stopping virus excretion”. Further, the “Inhibitory activity against PV1” value in series [2] was “inactive”. For the same compound, the “reduction of infectious virus yield” value in [9] is “not able to reduce infectious virus yield”.
In the case of `CCOC(=O)c1ccc(OCCCC2CCN(c3ccc(C)nn3)CC2)cc1` [Pirodavir analog (R78206)], the EC50 in series [6] is 0.11 ± 0.1 µM; in series [2], 0.76 ± 0.18 µM; in [5] (HeLa), < 2 µM; in series [7] it was 0.22 ± 0.19 µM. The compound further returned a CC50 in series [1] of 27 ± 34 µM. In addition, the “Inhibitory activity against PV1” value in [2] is given as “exhibited inhibitory activity”.
As to `CCOC(=O)c1ccc(OCCC2CCN(c3ccc(C)nn3)CC2)cc1` [Pirodavir (R77975)], the EC50 in series [6] is 0.56 ± 0.03 µM; in [2], 10 ± 1 µM; in series [5] (HeLa), < 2 µM; in series [7] it was 1.7 ± 0.1 µM. Further, the CC50 in series [1] was > 100 µM. In addition, in series [3], the “metabolic stability after oral administration” value is reported as “metabolic instability”.
For the compound `N=c1ccn(Cc2nc3ccccc3n2-c2ccc(F)cc2)cc1` [MRL-1237], the EC50 in series [6] came out at 3.8 ± 2.5 µM; in series [2] it was 5.3 ± 0.3 µM; in series [7] it was 4.6 ± 1.4 µM. In addition, the CC50 in [1] was > 100 µM.
Turning to `CCOC(=O)/C=C/[C@H](C[C@@H]1CCNC1=O)NC(=O)[C@@H](CC(=O)[C@@H](NC(=O)c1cc(C)on1)C(C)C)Cc1ccc(F)cc1` [Rupintrivir], the EC50 turned out to be 0.0052 ± 0.0046 µM in series [6], 0.022 ± 0.028 µM in [2] and 0.041 ± 0.024 µM in series [7]. In addition, in series [1], the CC50 is > 100 µM. The “decrease of infectious virus production” value in series [9] came to 6 log10. Also, the “reduction of virus progeny formation” value in series [9] is on record as 10–1,000 fold. The “cytotoxicity” value in series [4] is on record as “without any signs of cytotoxicity”.
In the case of `CC(C)S(=O)(=O)n1c(N)nc2ccc(/C(=N/O)c3ccccc3)cc21` [Enviroxime], the EC50 in series [6] was 0.035 ± 0.029 µM; in series [2], 0.2 ± 0.25 µM; in [5] it was 0.035 to 0.2 µM; in [7], 0.056 ± 0.02 µM. Further, the CC50 in series [1] worked out at 58 ± 6 µM. In addition, in series [10], the activity in vivo result was “weak to moderate”. For the same compound, the toxicity in vivo result in series [10] is reported as “toxicity”.
